Data: PubChem BioAssay (NCI)
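Dose response: 5 concentrations. Exposure: 48 h. Format: 96-well plates. Endpoint: linear interpolation; highest concentration if not reached. TGI marks complete inhibition of growth.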

How the values were obtained:
Assay in all cases: DTP human tumour cell line panel, 48 h
[1] = system: SK-MEL-5 melanoma
[2] = system: OVCAR-5 ovarian
[3] = system: RXF 393 renal
[4] = system: MOLT-4 leukemia
[5] = system: ACHN renal
[6] = system: SF-539 CNS
[7] = system: HT29 colon
[8] = system: K-562 leukemia
[9] = system: HCT-116 colon
[10] = system: COLO 205 colon
[11] = system: RPMI-8226 leukemia
[12] = system: SNB-19 CNS
[13] = system: T-47D breast
[14] = system: MCF7 breast
[15] = system: EKVX NSCLC
[16] = system: HCC-2998 colon
[17] = system: DU-145 prostate
[18] = system: NCI-H522 lung

Measured: TGI

c1ccc(C2OCCO2)c(OCCOc2cc(OCCOc3ccccc3C3OCCO3)c(OCCOc3ccccc3C3OCCO3)cc2OCCOc2ccccc2C2OCCO2)c1
> 100 µM: [1] | [2] | [4] | [5] | [7] | [8] | [10] | [11]
18.2 µM: [3]
32.7 µM: [6]
44.2 µM: [9]

CC12c3c4cc(Br)cc3Oc3cc(Br)cc(c31)Oc1cc(Br)cc(c12)O4
82.6 µM: [15]
84.5 µM: [1]
49.1 µM: [17]
not listed: [3] | [18]
> 100 µM: all other assays above

COc1ccc(-c2cc(=O)c3cc4c(cc3[nH]2)OCO4)cc1
41.3 µM: [15]
not listed: [2] | [13] | [14] | [17] | [18]
> 100 µM: all other assays above

CCN(CC)C(=S)N=Nc1c(O)[nH]c2ccccc12
25.1 µM: [2]
11.6 µM: [10]
2.37 µM: [14]
14.4 µM: [18]
4.07 µM: [11]
> 100 µM: [17]
2.4 µM: [6]
2.41 µM: [1]
11.5 µM: [15]
2.84 µM: [9]
16 µM: [12]
10.1 µM: [5]
5.31 µM: [8]
7.15 µM: [3]
2.93 µM: [4]
14.8 µM: [7]

CC(C)CCc1n[nH]c(=O)n1/N=C\c1ccccc1
not listed: [11] | [14]
> 100 µM: all other assays above

CC(C)CC(NC(=O)C(CCI)Cc1ccccc1)C(=O)Nc1ccccc1 (stereo not given)
83.6 µM: [4]
78.1 µM: [18]
not listed: [7] | [13]
> 100 µM: all other assays above

O=C(CNC(=O)OCc1ccccc1)NCCCCC(NC(=O)OCc1ccccc1)C(=O)NC(CCCCNC(=O)CNC(=O)OCc1ccccc1)C(=O)OCc1ccccc1 (stereo not given)
not listed: [3] | [6] | [10] | [15]
> 62.5 µM: all other assays above

CC(=O)O[C@H]1CCn2c3c(c(C)c21)C(=O)C(N1CC1)=C(C)C3=O
6.67 µM: [1]
not listed: [3]
> 10 µM: all other assays above

O=C1NC(=O)C(COCc2ccccc2)C2=C1SCCC2 (stereo not given)
not listed: [2] | [13]
> 100 µM: all other assays above

O=C(Cc1ccccc1)NNc1nc(NNC(=O)c2ccncc2)nc(Nc2cccc(Cl)c2)n1
not listed: [2] | [3] | [5] | [9] | [12] | [18]
> 10 µM: all other assays above

O=C1CC(C(=O)N2CCCCC2)n2c(=O)n(-c3ccccc3)c(=O)n2C1 (stereo not given)
not listed: [4] | [8] | [11] | [13]
> 100 µM: all other assays above

CC(C)C1COC(c2cccc(C3=N[C@@H](C(C)C)CO3)n2)=N1 (stereo not given in full)
not listed: [13] | [14] | [17]
> 100 µM: all other assays above

O=C1CCCCC/C1=C\c1ccc(Cl)cc1
40.8 µM: [10]
54.5 µM: [7]
35.2 µM: [1]
95.1 µM: [4]
73 µM: [18]
82.2 µM: [11]
96.2 µM: [16]
not listed: [3] | [6] | [8] | [14]
> 100 µM: all other assays above

Cc1ccc2c(C)c3ccc4ccccc4c3c[n+]2c1
28.6 µM: [16]
33.7 µM: [6]
40.8 µM: [12]
64.8 µM: [11]
> 100 µM: [2] | [5] | [7] | [8] | [15]
25.4 µM: [1]
> 89.7 µM: [9]
67.4 µM: [3]
27.2 µM: [10]
28.3 µM: [18]
45.9 µM: [4]
